From patent publication US9822467B2, “Methods and systems relating to the selection of substrates comprising crystalline templates for the controlled crystallization of molecular species” (Massachusetts Institute of Technology, priority 2011, dated 2017)
Entries after “also recorded” stand apart in the source; their conditions may differ.

Columns and labels:
[1] = cited from earlier work; for Stability of the polymorph: ambient conditions / air
[2] = Polymorph obtained on crystallization of 3-ABSA from water with or without AMMP substrate (XRPD)
[3] = Polymorph obtained on crystallization of AAP from ethanol with or without crystalline substrate (DSC, XRPD); type: physicochemical; conditions: supersaturation 0.49 with respect to Form I; for Polymorphic form of AAP crystallized in the presence of substrate: substrate seeds added, DSC/XRPD, label = substrate
From the text: Such an observation implies that for both polymorphs their nucleation rate constants follow the relationship kI>kII. It was hypothesized crystalline substrates would be able to selectively crystallize Form II if they fit the following two core criteria: 1) the unit cell parameters of the substrate were substantially similar to that of Form II and 2) the molecular functionality of the compound acting as the substrate is similar to that of AAP. By constraining the crystallographic properties of the substrate in this way, a three dimensional lattice match with Form II was targeted. Furthermore, selection of compounds with similar functionality as AAP was selected to stabilize the formation of a nucleus through favorable interactions such as hydrogen bonds.
The crystallizations of AAP from ethanol were then repeated in the presence of 50 mg of 4-APAA seeds, added after the desired supersaturation had been achieved. Once crystallization occurred, the crystals were filtered immediately and analyzed by DSC and x-ray powder diffraction. […] Furthermore no melting endotherm for Form I which is often observed in DSC traces of apparently pure Form II.
A plot of dimensionless potential energy (V/V0) as a function of orientation angle (θ) for the interacting (001) faces of Form II acetaminophen and graphite was prepared. The EpiCalc calculation was performed using the following lattice values for the (001) faces of Form II acetaminophen and graphite: (001) Form II acetaminophen: a=17.1657 Å, b=11.7773 and Å and β=90° (001); graphite: a=b=2.456 Å and α=90°. The acetaminophen overlayer dimensions were 25×25 cells and the orientation angle range tested was 180° with a step size of 0.25°.

[4] = Nucleation induction time of AAP from ethanol in the presence of crystalline substrates; type: physicochemical; conditions: AAP Form I from ethanol; for Average induction times, τ: σ = 0.36, 15° C.; for Change in τ compared to bulk nucleation: σ = 0.36
Procedure: 1.5 mL aliquots of the stock solution were then syringe filtered into HPLC vials through a 0.2 μm nylon membrane in order to remove solid impurities. Crystallisations were carried out using a RS10 Clarity Solubility Station with non-intrusive infrared transmission probes and Integrity Client Software. The vials were initially held for 30 mins at 40° C. to ensure complete dissolution of AAP had occurred. After which they were cooled to 15° C. at a rate of 5° C./min and held at this temperature over a 24 hour period whilst the turbidity of the solution was monitored. Over the course of the experiments the stirring speed in each vial was held constant at 700 rpm. For those crystallizations requiring substrate, 3 mg was used. […] For each system studied 50 crystallisations were carried out to ensure a sufficient number of data points were obtained for statistical analysis.
The effectiveness of the five chosen substrates at promoting nucleation of AAP was measured by determining their effect on the nucleation induction time, τ. […] X-ray powder diffraction was used to confirm that it was the nucleation induction time of Form I being measured in all cases with any additional peaks in the diffraction patterns correspond to the substrates.
The percentage of vials crystallized as a function of time were plotted to give cumulative probability distributions of nucleation induction time for each system tested. […] It was assumed that nucleation follows a Poisson distribution (Equation 1). λ is the expected number of occurrences in the interval and k is the exact number of occurrences. If k=0 and […], then the probability of observing no nucleation events within a time, t, is given by equation 2 which is consistent with first order kinetic expressions previously used for studying nucleation events.
Using linear regression, plotting ln(P) against t (FIG. 10), the average induction times and associated errors were calculated (Table 3).

[5] = 3 mg substrate, 700 rpm, 50 crystallisations, label = substrate

Compound: Nc1cccc(S(=O)(=O)O)c1 [3-ABSA Form II, 3-aminobenzenesulfonic acid]
- Stability of the polymorph [1]: thermodynamically most stable form under ambient conditions

Compound: Nc1cccc(S(=O)(=O)O)c1 [3-ABSA, 3-aminobenzenesulfonic acid]
- Polymorphic form of 3-ABSA crystallized without substrate ([2]; aqueous solution, no substrate): only Form II was obtained; also recorded: Form II had crystallized

Compound: Nc1ccc(CC(=O)O)cc1 [4-APAA, 4-aminophenylacetic acid]
- Polymorphic form of AAP crystallized in the presence of substrate [3]: Form II crystallized

Compound: CC(=O)Nc1ccc(O)cc1 [AAP Form I, acetaminophen, reference compound]
- Average induction times, τ ([4]; bulk nucleation, no substrate): 1930 ± 85 min
- Stability of the polymorph [1]: thermodynamically stable phase under ambient conditions

Compound: CC(=O)Nc1ccc(O)cc1 [AAP Form II, acetaminophen]
- Time until Form I crystallizes via solvent mediated phase transformation when seeding with Form II ([1]; in solution, seeded with Form II): ≤ 15 min
- Temperature of solid state transformation to Form I ([1]; solid state): Above 60 °C

Compound: CC(=O)Nc1ccc(O)cc1 [AAP Form III, acetaminophen]
- Stability of the polymorph [1]: highly unstable in air

Compound: CC(=O)Nc1ccc(O)cc1 [AAP, acetaminophen, reference compound]
- Polymorphic form of AAP crystallized without substrate [3]: only Form I was obtained

Compound: COc1cc(C)nc(N)n1 [AMMP]
- Polymorphic form of 3-ABSA crystallized in the presence of substrate ([2]; aqueous solution saturated at 50° C., cooled to 10° C., 50 mg AMMP seeds, label = substrate): Form I crystallized; also recorded: a mixture of Forms I and II was obtained

Compound: OC[C@@H](O)[C@@H](O)[C@H](O)[C@H](O)CO [D-mannitol]
- Average induction times, τ [4, 5]: 390 ± 8 min
- Change in τ compared to bulk nucleation ([4]; label = substrate): largest reduction in τ
- Polymorphic form of AAP crystallized in the presence of substrate [3]: Form I

Compound: N[C@@H](Cc1c[nH]cn1)C(=O)O [L-histidine]
- Average induction times, τ [4, 5]: 1910 ± 95 min
- Change in τ compared to bulk nucleation ([4]; label = substrate): no measureable decrease in τ

Compound: [Cl-].[Na+] [Sodium Chloride, sodium chloride]
- Polymorphic form of AAP crystallized in the presence of substrate [3]: Form I

Compound: O.OC[C@H]1O[C@@H](O[C@H]2[C@H](O)[C@@H](O)[C@@H](O)O[C@@H]2CO)[C@H](O)[C@@H](O)[C@H]1O [α-LMH, α-lactose monohydrate]
- Average induction times, τ [4, 5]: 410 ± 11 min
- Change in τ compared to bulk nucleation ([4]; label = substrate): largest reduction in τ
- Polymorphic form of AAP crystallized in the presence of substrate [3]: Form I
